Test results published in PubChem BioAssay (NCI).
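In this assay, cells in 96-well plates receive the compound at five concentrations for 48 hours. Endpoints are linearly interpolated between the surrounding concentrations. Abbreviation: GI50, concentration required for 50% inhibition of growth. TGI: total growth inhibition.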

Assays:
Assay in all cases: inhibition of tumour cell growth, NCI panel, 48 h
[1] = test system: CAKI-1 renal
[2] = test system: HCC-2998 colon
[3] = test system: HCT-15 colon
[4] = test system: NCI-H460 lung
[5] = test system: SK-MEL-5 melanoma
[6] = test system: LOX IMVI melanoma
[7] = test system: MCF7 breast
[8] = test system: CCRF-CEM leukemia
[9] = test system: HCT-116 colon
[10] = test system: SNB-19 CNS
[11] = test system: UACC-257 melanoma
[12] = test system: UACC-62 melanoma
[13] = test system: DU-145 prostate
[14] = test system: IGROV1 ovarian
[15] = test system: NCI/ADR-RES ovarian
[16] = test system: SF-539 CNS
[17] = test system: 786-0 renal
[18] = test system: TK-10 renal
[19] = test system: HS 578T breast
[20] = test system: MDA-MB-231 breast
[21] = test system: K-562 leukemia
[22] = test system: UO-31 renal
[23] = test system: OVCAR-8 ovarian
[24] = test system: RXF 393 renal
[25] = test system: SK-OV-3 ovarian
[26] = test system: HT29 colon
[27] = test system: ACHN renal
[28] = test system: RPMI-8226 leukemia
[29] = test system: SK-MEL-28 melanoma
[30] = test system: SN12C renal
[31] = test system: SR leukemia
[32] = test system: OVCAR-3 ovarian
[33] = test system: PC-3 prostate
[34] = test system: NCI-H522 lung
[35] = test system: EKVX NSCLC
[36] = test system: T-47D breast
[37] = test system: NCI-H23 lung
[38] = test system: MOLT-4 leukemia
[39] = test system: HL-60(TB) leukemia
[40] = test system: MALME-3M melanoma
[41] = test system: NCI-H226 lung
[42] = test system: A549 NSCLC
[43] = test system: SW-620 colon
[44] = test system: SF-295 CNS
[45] = test system: SF-268 CNS
[46] = test system: M14 melanoma
[47] = test system: MDA-MB-435
[48] = test system: BT-549 breast
[49] = test system: OVCAR-4 ovarian
[50] = test system: HOP-92 NSCLC
[51] = test system: SK-MEL-2 melanoma
[52] = test system: A498 renal
[53] = test system: SNB-75 CNS
[54] = test system: KM12 colon
[55] = test system: U251 CNS
[56] = test system: OVCAR-5 ovarian
[57] = test system: COLO 205 colon

`Cc1c(Cl)c(C)c(Cc2c(C)c(Cl)c(C)c(Cl)c2O)c(O)c1Cl` showed a GI50 [1] of 2.3 µM, a TGI [1] of 9.77 µM and a GI50 [2] of 3.8 µM. It also gave a TGI [2] of 11.6 µM, a GI50 [3] of 2.32 µM and a TGI [3] of 10.7 µM. For the same molecule, the GI50 [4] was 2.43 µM, the TGI [4] was 10.2 µM and the GI50 [5] was 1.28 µM. It also gave a TGI [5] of 3.33 µM, a GI50 [6] of 3.18 µM and a TGI [6] of 10.5 µM. For the same molecule, the GI50 [7] was 2.14 µM, the TGI [7] was 8.37 µM and the GI50 [8] was 2.57 µM. The TGI [8] was 12.6 µM, the GI50 [9] was 2.42 µM and the TGI [9] was 10.5 µM. It also gave a GI50 [10] of 3.15 µM, a TGI [10] of 13.8 µM and a GI50 [11] of 3.52 µM. It also gave a TGI [11] of 14.9 µM, a GI50 [12] of 1.81 µM and a TGI [12] of 6.84 µM. The GI50 [13] was 4.83 µM, the TGI [13] was 16.6 µM and the GI50 [14] was 4.07 µM. For the same molecule, the TGI [14] was 19 µM, the GI50 [15] was 3.09 µM and the TGI [15] was 10.2 µM. For the same molecule, the GI50 [16] was 3.01 µM, the TGI [16] was 11.4 µM and the GI50 [17] was 2.98 µM. For the same molecule, the TGI [17] was 9.84 µM, the GI50 [18] was 3.79 µM and the TGI [18] was 17.2 µM. It also gave a GI50 [19] of 2.71 µM, a TGI [19] of 9.55 µM and a GI50 [20] of 2.38 µM. It also gave a TGI [20] of 7.2 µM, a GI50 [21] of 2.21 µM and a TGI [21] of 14.1 µM. For the same molecule, the GI50 [22] was 3.09 µM, the TGI [22] was 11.6 µM and the GI50 [23] was 3.73 µM. The TGI [23] was 21.6 µM, the GI50 [24] was 2 µM and the TGI [24] was 6.89 µM. The GI50 [25] was 2.68 µM, the TGI [25] was 9.46 µM and the GI50 [26] was 3.84 µM. For the same molecule, the TGI [26] was 12.7 µM, the GI50 [27] was 2.32 µM and the TGI [27] was 6.88 µM. It also gave a GI50 [28] of 1.18 µM, a TGI [28] of 6.66 µM and a GI50 [29] of 3.14 µM. For the same molecule, the TGI [29] was 14 µM, the GI50 [30] was 2.46 µM and the TGI [30] was 11.8 µM. The GI50 [31] was 3.4 µM, the TGI [31] was 12.4 µM and the GI50 [32] was 3.28 µM. For the same molecule, the TGI [32] was 11.2 µM, the GI50 [33] was 1.99 µM and the TGI [33] was 11.8 µM. The GI50 [34] was 1.84 µM, the TGI [34] was 11.2 µM and the GI50 [35] was 2.64 µM. The TGI [35] was 9.25 µM, the GI50 [36] was 2.11 µM and the TGI [36] was 8.76 µM. For the same molecule, the GI50 [37] was 2.46 µM, the TGI [37] was 8.79 µM and the GI50 [38] was 3.24 µM. It also gave a TGI [38] of 13.4 µM, a GI50 [39] of 2.92 µM and a TGI [39] of 11.2 µM. For the same molecule, the GI50 [40] was 2.33 µM, the TGI [40] was 5.97 µM and the GI50 [41] was 2.52 µM. The TGI [41] was 10.7 µM, the GI50 [42] was 4.07 µM and the TGI [42] was 18.6 µM. It also gave a GI50 [43] of 3.14 µM, a TGI [43] of 13.5 µM and a GI50 [44] of 2.05 µM. It also gave a TGI [44] of 5.08 µM, a GI50 [45] of 3.4 µM and a TGI [45] of 15.8 µM. The GI50 [46] was 3.53 µM, the TGI [46] was 14.4 µM and the GI50 [47] was 3.13 µM. For the same molecule, the TGI [47] was 11.1 µM, the GI50 [48] was 2.37 µM and the TGI [48] was 8.33 µM. For the same molecule, the GI50 [49] was 2.99 µM, the TGI [49] was 9.97 µM and the GI50 [50] was 1.16 µM. It also gave a TGI [50] of 4.74 µM, a GI50 [51] of 2.85 µM and a TGI [51] of 9.73 µM. The GI50 [52] was 2.04 µM, the TGI [52] was 6.35 µM and the GI50 [53] was 2.27 µM. It also gave a TGI [53] of 7.93 µM, a GI50 [54] of 3.34 µM and a TGI [54] of 11.4 µM. It also gave a GI50 [55] of 3.1 µM, a TGI [55] of 10.9 µM and a GI50 [56] of 3.67 µM. It also gave a TGI [56] of 14.4 µM, a GI50 [57] of 3.04 µM and a TGI [57] of 9.24 µM.
